# Several values for one entry are separate records, joined by “and”; a condition that tells them apart may be missing. Identical values can stand only once.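 Protocol summary: plate cells (96-well), add compound at 5 concentrations, incubate 48 h, interpolate endpoints linearly. GI50: concentration for 50% inhibition of growth. At the TGI there is no net growth.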
# What was measured:
# Test in all cases: NCI anticancer screen, dose series, 48 h
# [1] = test system: CCRF-CEM leukemia
# [2] = test system: HL-60(TB) leukemia
# [3] = test system: HT29 colon
# [4] = test system: OVCAR-5 ovarian
# [5] = test system: A549 NSCLC
# [6] = test system: NCI-H23 lung
# [7] = test system: COLO 205 colon
# [8] = test system: SF-295 CNS
# [9] = test system: SK-MEL-5 melanoma
# [10] = test system: A498 renal
Compound,TGI [1],TGI [2] [µM],TGI [3] [µM],TGI [4],TGI [5],TGI [6],TGI [7],TGI [8] [µM],TGI [9],GI50 [1],GI50 [2] [µM],GI50 [3],GI50 [4] [µM],GI50 [5],GI50 [6],GI50 [7],GI50 [8] [µM],GI50 [9],TGI [10] [µM],GI50 [10] [µM]
NC1=NC(=O)C(CC(=O)Nc2ccc([N+](=O)[O-])cc2[N+](=O)[O-])S1 (stereo unspecified),> 100 µM,> 100,> 100,> 100 µM,> 100 µM,> 100 µM,> 100 µM,> 100,> 100 µM,–,–,–,–,–,–,–,–,–,–,–
CC(=O)O[C@H]1C(=O)[C@@]2(C)[C@H]([C@H](OC(=O)c3ccccc3)[C@]3([O-])C[C@H](OC(=O)[C@H]([O-])[C@@H](NC(=O)c4ccccc4)c4ccccc4)C(C)=C1C3(C)C)[C@]1(OC(C)=O)CO[C@@H]1C[C@@H]2[O-].[Fe+3],65 µM and 68.9 µM,0.301,–,11.1 µM and > 100 µM,65 µM and > 100 µM,65 µM and > 100 µM,0.226 µM and 0.508 µM,> 100,65 µM and 19.6 µM,0.249 µM and 0.876 µM,0.0639,0.0236 µM and 0.0328 µM,0.88,0.0335 µM and 0.0852 µM,0.0685 µM and 0.164 µM,0.0365 µM and 0.0432 µM,0.0836,0.0521 µM and 0.0683 µM,–,–
CC1(C)CCc2cc3c(cc2O1)OCCC3=O,> 100 µM,> 100,> 100,> 100 µM,> 100 µM,> 100 µM,> 100 µM,> 100,> 100 µM,–,–,–,–,–,–,–,–,–,> 100,–
c1ccc2c(c1)N=C(c1cccc3ccccc13)CC(c1cccc3ccccc13)S2 (stereo unspecified),4.67 µM,3.56,10.1,16.8 µM,41.9 µM,12.5 µM,28.3 µM,27.2,22.1 µM,–,–,–,–,–,–,–,–,–,20.8,–
CCOC(=O)Cc1nc(/C(C#N)=C/c2ccco2)[nH]c(=O)c1C#N,> 100 µM,> 100,> 100,> 100 µM,> 100 µM,> 100 µM,> 100 µM,> 100,> 100 µM,–,–,–,–,–,–,–,–,–,–,–
C=CC(=O)Nc1cccc(Nc2nc(Nc3ccc(OCCOC)cc3)ncc2F)c1,> 63.1 µM,41.7,16.3,21 µM,13.1 µM,29.1 µM,11 µM,14,20.2 µM,4.06 µM,7.7,2.6 µM,1.89,2.77 µM,5.67 µM,2.39 µM,2.95,6.18 µM,1.66,0.306
O=C(N/N=C/c1ccc(Cl)cc1Cl)c1ccccc1Nc1cccc(C(F)(F)F)c1,19.3 µM,> 100,> 100,> 100 µM,6.18 µM,32.8 µM,9.37 µM,8.8,> 100 µM,3.51 µM,79,14.4 µM,24.3,2.31 µM,5.93 µM,2.73 µM,2.55,26.5 µM,52.4,14.9
CC(=O)[CH-]C(C)=O.CC(=O)[CH-]C(C)=O.N=CC=N.[Sn+2],13.3 µM,15.3,10.8,19.2 µM,22.4 µM,10.9 µM,3.61 µM,23.3,16.9 µM,1.51 µM,2.09,3.41 µM,7.29,9.6 µM,3.23 µM,2.02 µM,10.4,5.46 µM,22.4,9.97
CCCSc1cc(Cl)nc(N)n1,> 100 µM,50.5,> 100,> 100 µM,> 100 µM,> 100 µM,> 100 µM,> 100,> 100 µM,> 100 µM,6.48,> 100 µM,> 100,> 100 µM,> 100 µM,> 100 µM,> 100,> 100 µM,> 100,> 100
COc1ccc2c(c1)C=CC(C#N)N2C(=O)c1ccccc1 (stereo unspecified),> 100 µM,–,> 42.1,> 100 µM,> 100 µM,> 100 µM,< 0.048 µM,> 100,4.68 µM,< 0.01 µM,< 0.01,< 0.01 µM,–,< 0.01 µM,< 0.01 µM,< 0.01 µM,< 0.01,< 0.01 µM,0.0825,< 0.01
CNC(=O)c1ccc(-c2cnc3ncc(Cc4ccc5ncccc5c4)n3n2)cc1F,> 100 µM,> 100,> 100,> 100 µM,> 100 µM,> 100 µM,> 100 µM,> 100,> 100 µM,> 100 µM,> 100,> 100 µM,> 100,> 100 µM,> 100 µM,> 100 µM,22.1,> 100 µM,> 100,> 100
CCN(Cc1c(F)cccc1F)c1ccc(CO)c(Cl)c1,98.5 µM,39.4,19.5,0.147 µM,10.7 µM,57.5 µM,1.61 µM,28,26.7 µM,25.7 µM,3.1,0.747 µM,0.0353,0.445 µM,15 µM,0.387 µM,0.108,13.5 µM,0.069,0.0173
COc1cc(-c2cn(C)c(=O)c(C)c2C)cc(OC)c1CN1CC[C@H](N2CCN(c3ccc(N[C@H]4CCC(=O)NC4=O)cc3F)CC2)C(F)(F)C1,> 100 µM,> 100,27.2,31.5 µM,31.1 µM,28.6 µM,37.4 µM,25.5,18.8 µM,19.4 µM,2.92,11.4 µM,15.8,12.3 µM,14 µM,14.4 µM,11.9,4.64 µM,27.2,13.8
CC(=O)n1c(-c2ccc(Cl)cc2)nc2c(c1=O)C(c1ccc(Cl)cc1)c1sc3c(Cl)cccc3c1O2 (stereo unspecified),4.12 µM,0.853,1.33,4.31 µM,2.32 µM,2.32 µM,1.57 µM,1.24,1.32 µM,0.383 µM,0.289,0.368 µM,1.72,0.835 µM,0.513 µM,0.364 µM,0.31,0.354 µM,–,–

# From PubChem BioAssay (NCI)
